Drawing on BindingDB's records for doi:10.1021/jm00039a025 (Wellcome Research Laboratories, 1994), this text covers IC50 for two compounds.

A short description of this assay: Ability to inhibit glycinamide ribonucleotide transformylase (GAR-Tfase) in vitro, using hog liver with (6R)-10-formyl-FH4 as cofactor.

With `Nc1nc(N)c(CCCNc2cnc(C(=O)N[C@H](CCC(=O)O)C(=O)O)s2)c(=O)[nH]1` [(S)-2-({5-[3-(2,4-Diamino-6-oxo-1,6-dihydro-pyrimidin-5-yl)-propylamino]-thiazole-2-carbonyl}-amino)-pentanedioic acid], the IC50 (in general, the point on the concentration scale where inhibition reaches its midpoint) worked out at 0.14 µM.
The figure for `Nc1nc(N)c(CCCNc2ccc(C(=O)N[C@H](CCC(=O)O)C(=O)O)s2)c(=O)[nH]1` [(S)-2-({5-[3-(2,4-Diamino-6-oxo-1,6-dihydro-pyrimidin-5-yl)-propylamino]-thiophene-2-carbonyl}-amino)-pentanedioic acid] is 2.06 µM.
